Experiment: xn = mol fraction of the nth substance listed
Conditions: Liquid, Vibrating tube method

C=CC [propene] + CC(C)O
Conditions | mass density [kg/m3]
325.09 K, 5370.7 kPa, x1 = 0.2011 | 709.32
325.09 K, 5883.5 kPa, x1 = 0.2011 | 709.98
325.09 K, 6336.2 kPa, x1 = 0.2011 | 710.58
325.09 K, 6788.4 kPa, x1 = 0.2011 | 711.17
325.09 K, 7346.6 kPa, x1 = 0.2011 | 711.9
325.09 K, 7879.3 kPa, x1 = 0.2011 | 712.57
325.09 K, 8392.5 kPa, x1 = 0.2011 | 713.18
325.09 K, 8985.2 kPa, x1 = 0.2011 | 713.89
325.09 K, 9587.7 kPa, x1 = 0.2011 | 714.65
325.13 K, 1747.5 kPa, x1 = 0.6478 | 573.29
325.13 K, 2151.8 kPa, x1 = 0.6478 | 574.52
325.13 K, 2607.5 kPa, x1 = 0.6478 | 575.84
325.13 K, 3022.1 kPa, x1 = 0.6478 | 577
325.13 K, 3422.7 kPa, x1 = 0.6478 | 578.16
325.13 K, 3826.3 kPa, x1 = 0.6478 | 579.23
325.13 K, 4289 kPa, x1 = 0.6478 | 580.41
325.13 K, 4682.5 kPa, x1 = 0.6478 | 581.48
325.13 K, 5094.6 kPa, x1 = 0.6478 | 582.53
325.13 K, 5524.8 kPa, x1 = 0.6478 | 583.59
325.13 K, 5972.2 kPa, x1 = 0.6478 | 584.68
325.13 K, 6431 kPa, x1 = 0.6478 | 585.75
325.13 K, 6923.3 kPa, x1 = 0.6478 | 586.94
325.13 K, 7433.5 kPa, x1 = 0.6478 | 588.03
325.13 K, 7935 kPa, x1 = 0.6478 | 589.22
325.13 K, 8459.9 kPa, x1 = 0.6478 | 590.39
325.13 K, 9024 kPa, x1 = 0.6478 | 591.62
325.13 K, 9558.5 kPa, x1 = 0.6478 | 592.78
350.12 K, 2332.3 kPa, x1 = 0.5201 | 576.59
350.12 K, 2731.4 kPa, x1 = 0.5201 | 577.92
350.12 K, 2992.4 kPa, x1 = 0.5201 | 578.85
350.12 K, 3218 kPa, x1 = 0.5201 | 579.68
350.12 K, 3506.1 kPa, x1 = 0.5201 | 580.58
350.12 K, 3765.6 kPa, x1 = 0.5201 | 581.46
350.12 K, 4225.5 kPa, x1 = 0.5201 | 582.95
350.12 K, 4550.6 kPa, x1 = 0.5201 | 583.87
350.12 K, 4824.4 kPa, x1 = 0.5201 | 584.73
350.12 K, 5103.7 kPa, x1 = 0.5201 | 585.64
350.12 K, 5399.3 kPa, x1 = 0.5201 | 586.54
350.12 K, 5715.5 kPa, x1 = 0.5201 | 587.44
350.12 K, 5999.5 kPa, x1 = 0.5201 | 588.29
350.12 K, 6303.9 kPa, x1 = 0.5201 | 589.18
350.12 K, 6632.8 kPa, x1 = 0.5201 | 590.1
350.12 K, 6975.5 kPa, x1 = 0.5201 | 591.05
350.12 K, 7280 kPa, x1 = 0.5201 | 591.94
350.12 K, 7641.3 kPa, x1 = 0.5201 | 592.87
350.12 K, 7963.5 kPa, x1 = 0.5201 | 593.76
350.12 K, 8312 kPa, x1 = 0.5201 | 594.68
350.12 K, 8762.4 kPa, x1 = 0.5201 | 595.82
350.12 K, 9211 kPa, x1 = 0.5201 | 596.88
350.12 K, 9622.9 kPa, x1 = 0.5201 | 597.92
350.18 K, 1639.5 kPa, x1 = 0.2011 | 677.13
350.18 K, 2070 kPa, x1 = 0.2011 | 677.93
350.18 K, 2446.2 kPa, x1 = 0.2011 | 678.64
350.18 K, 2689 kPa, x1 = 0.6478 | 531.01
350.18 K, 2924.3 kPa, x1 = 0.2011 | 679.5
350.18 K, 3126.3 kPa, x1 = 0.6478 | 533.02
350.18 K, 3271.4 kPa, x1 = 0.2011 | 680.17
350.18 K, 3675.3 kPa, x1 = 0.2011 | 680.86
350.18 K, 3686.2 kPa, x1 = 0.6478 | 535.68
350.18 K, 3914.3 kPa, x1 = 0.6478 | 536.74
350.18 K, 4058.4 kPa, x1 = 0.2011 | 681.6
350.18 K, 4203.2 kPa, x1 = 0.6478 | 537.97
350.18 K, 4446.8 kPa, x1 = 0.2011 | 682.32
350.18 K, 4484.6 kPa, x1 = 0.6478 | 539.15
350.18 K, 4738.5 kPa, x1 = 0.6478 | 540.5
350.18 K, 4791.3 kPa, x1 = 0.2011 | 682.93
350.18 K, 5023.4 kPa, x1 = 0.6478 | 541.63
350.18 K, 5171.9 kPa, x1 = 0.2011 | 683.6
350.18 K, 5321.2 kPa, x1 = 0.6478 | 542.86
350.18 K, 5557.4 kPa, x1 = 0.2011 | 684.26
350.18 K, 5614 kPa, x1 = 0.6478 | 543.95
350.18 K, 5938.9 kPa, x1 = 0.6478 | 545.1
350.18 K, 6002 kPa, x1 = 0.2011 | 684.96
350.18 K, 6268.4 kPa, x1 = 0.6478 | 546.35
350.18 K, 6430.2 kPa, x1 = 0.2011 | 685.69
350.18 K, 6622.1 kPa, x1 = 0.6478 | 547.76
350.18 K, 6978.6 kPa, x1 = 0.6478 | 548.98
350.18 K, 7071.2 kPa, x1 = 0.2011 | 686.73
350.18 K, 7362 kPa, x1 = 0.6478 | 550.27
350.18 K, 7570.5 kPa, x1 = 0.2011 | 687.62
350.18 K, 7736.5 kPa, x1 = 0.6478 | 551.56
350.18 K, 7944.1 kPa, x1 = 0.2011 | 688.25
350.18 K, 8126.2 kPa, x1 = 0.6478 | 552.91
350.18 K, 8386.8 kPa, x1 = 0.2011 | 688.92
350.18 K, 8525.5 kPa, x1 = 0.6478 | 554.11
350.18 K, 8826.8 kPa, x1 = 0.2011 | 689.6
350.18 K, 8979.8 kPa, x1 = 0.6478 | 555.58
350.18 K, 9279 kPa, x1 = 0.2011 | 690.38
350.18 K, 9488 kPa, x1 = 0.6478 | 557.04
350.18 K, 9779.6 kPa, x1 = 0.2011 | 691.08
350.18 K, 9989.8 kPa, x1 = 0.6478 | 558.59

Conditions | mass density [kg/m3]
325.09 K, x1 = 0.2011 | 703.01
325.13 K, x1 = 0.6478 | 573.24
350.12 K, x1 = 0.5201 | 575.99
350.18 K, x1 = 0.2011 | 676.38
350.18 K, x1 = 0.6478 | 530.66
